Tested on: patient derived PDCL5 cells of metastatic pancreatic cancer
Test: Cell killing of patient-derived pancreatic cancer PDCL5 cells by gemcitabine, LB-100 or the combination
Format: cell-based, human
Settings: single agent: gemcitabine 1.0 uM or LB-100 5 uM, 72 hours (FIG. 3E)
Description: FIGS. 3A-3E: Analysis of the antiapoptotic function of cis-ATR in human cancer via TCGA data mining. […] FIGS. 3F-3G show two patient-derived pancreatic cancer cells, PDCL5 and PDCL15, subjected to MTT assays after treating with the PDAC therapy drug gemcitabine (1.0 μM or 0.3 μM, respectively) and PP2A inhibitor LB-100 (5 μM), alone or in combination, for 72 hours. PANC-1 cells were treated with gemcitabine (1.0 μM) or FOLFIRINOX (5-FU, 10 μM, oxaliplatin, 0.1 μM, leucovorin, 0.15 μM, irinotecan, 0.1 μM), alone or in combination with LB-100 (1.0 μM), for 72 hours before the MTT assay.
To further validate the above observations are not at random, the 5-year survival probability (SP) of different subgroups was calculated for all 17 cancer types, and paired Wilcoxon rank-sum tests were performed. […] The SP difference of DAPK1 expression level is not significant, likely because DAPK indirectly regulates cis-ATR while ATR is a direct substrate of Pin1 and PP2A. […] This remains true even for the analysis regardless of cancer types (FIG. 3D). […]
MTT viability assays were performed according to the manufacturer's specifications (Cayman's MTT Proliferation Assay kit #10009365), and […]. […]

SMILES	cell death induced
Nc1ccn([C@@H]2O[C@H](CO)[C@@H](O)C2(F)F)c(=O)n1 [Gemcitabine, gemcitabine]	little cell death
CN1CCN(C(=O)C2C3CCC(O3)C2C(=O)O)CC1 (centres unmarked) [LB-100]	little cell death

Reference: patent publication US20240238282A1, “METHODS OF TREATING CANCER AND ISCHEMIA DISEASES BY INHIBITION AND INTERVENTION OF ATR PROLYL ISOMERIZATION” (The University of Toledo, priority 2022, published 2024)
